Activity calls are given as the source filed them. The calls are words filed in the database; no cut-off is given here.
Assays:
Acetylcholinesterase [1] = biological target: T1, Acetylcholinesterase (Electrophorus electricus, UniProt O42275); experiment: Inhibition of electric eel AChE using acetylthiocholine iodide as substrate preincubated for 20 mins followed by substrate addition and measured after 20 mins by DTNB reagent based Ellman's method
Acetylcholinesterase [2] = biological target: T1, Acetylcholinesterase; experiment: Inhibition of electric eel AChE incubated overnight by two fold serial dilution method
Cholinesterase = Cholinesterase (Equus caballus, UniProt P81908); experiment: Inhibition of equine serum BuChE using butyrylthiocholine iodide as substrate preincubated for 20 mins followed by substrate addition and measured after 20 mins by DTNB reagent based Ellman's method; assay type: cell-free
[3] = biological target: Acetylcholinesterase (Electrophorus electricus) (UniProt O42275); experiment: Inhibition of electric eel AChE using acetylthiocholine iodide as substrate at 20 uM preincubated for 20 mins followed by substrate addition and measured after 20 mins by DTNB reagent based Ellman's method; conditions: time 40.0 min
[4] = biological target: Cholinesterase (Equus caballus) (UniProt P81908); experiment: Inhibition of equine serum BuChE using butyrylthiocholine iodide as substrate at 20 uM preincubated for 20 mins followed by substrate addition and measured after 20 mins by DTNB reagent based Ellman's method; assay type: cell-free; conditions: time 40.0 min
[5] = Permeability of the compound in PBS at pH 7.4 by incubated for 18 hrs by […] assay based UV- spectroscopy; assay type: ADME; conditions: read-out: permeability
Acetylcholinesterase [6] = biological target: T1, Acetylcholinesterase; experiment: Inhibition of electric eel AChE assessed as inhibition constant using acetylthiocholine iodide as substrate by Lineweaver-Burk plot analysis
PC-12 = experiment: Neuroprotective activity against H2O2-induced injury in rat PC12 cells assessed as increase in cell viability at 25 uM preincubated for 3 hrs followed by H2O2 addition and measured after 24 hrs by MTT assay relative to control; assay type: functional; conditions: time 27 hrs
Mus musculus [7] = experiment: Neuroprotective activity against amyloid beta 1-42 peptide induced ICR mouse assessed as reduction in latency at 5 mg/kg,po administration; assay type: functional, organism-based
Mus musculus [8] = experiment: Neuroprotective activity against amyloid beta 1-42 peptide induced ICR mouse assessed as increase in number of neurons in hippocampus at 5 mg/kg,po administration by hematoxylin-eosin staining based microscopic analysis; assay type: functional, organism-based
Mus musculus [9] = experiment: Neuroprotective activity against amyloid beta 1-42 peptide induced ICR mouse assessed as decrease in cognitive function impairment at 5 mg/kg,po administration; assay type: functional, organism-based

T1 sequence (O42275 whole entry): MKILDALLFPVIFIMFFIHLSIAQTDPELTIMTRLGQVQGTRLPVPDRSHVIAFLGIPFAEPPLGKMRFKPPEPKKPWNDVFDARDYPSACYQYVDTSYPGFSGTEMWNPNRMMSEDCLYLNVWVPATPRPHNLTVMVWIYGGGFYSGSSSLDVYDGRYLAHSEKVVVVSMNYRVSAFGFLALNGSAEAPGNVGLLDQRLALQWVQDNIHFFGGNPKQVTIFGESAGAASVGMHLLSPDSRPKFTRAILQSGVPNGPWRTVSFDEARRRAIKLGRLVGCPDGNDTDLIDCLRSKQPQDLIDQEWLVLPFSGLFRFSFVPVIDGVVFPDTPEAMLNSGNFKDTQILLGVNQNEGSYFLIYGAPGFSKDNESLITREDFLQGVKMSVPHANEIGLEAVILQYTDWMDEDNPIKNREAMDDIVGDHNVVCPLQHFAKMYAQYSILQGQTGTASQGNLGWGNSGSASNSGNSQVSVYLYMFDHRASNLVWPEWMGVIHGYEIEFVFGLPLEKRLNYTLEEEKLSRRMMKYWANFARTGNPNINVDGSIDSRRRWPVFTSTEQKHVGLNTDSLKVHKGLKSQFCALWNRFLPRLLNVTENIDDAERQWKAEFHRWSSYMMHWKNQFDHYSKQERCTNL
Sequence of Cholinesterase (P81908 whole entry): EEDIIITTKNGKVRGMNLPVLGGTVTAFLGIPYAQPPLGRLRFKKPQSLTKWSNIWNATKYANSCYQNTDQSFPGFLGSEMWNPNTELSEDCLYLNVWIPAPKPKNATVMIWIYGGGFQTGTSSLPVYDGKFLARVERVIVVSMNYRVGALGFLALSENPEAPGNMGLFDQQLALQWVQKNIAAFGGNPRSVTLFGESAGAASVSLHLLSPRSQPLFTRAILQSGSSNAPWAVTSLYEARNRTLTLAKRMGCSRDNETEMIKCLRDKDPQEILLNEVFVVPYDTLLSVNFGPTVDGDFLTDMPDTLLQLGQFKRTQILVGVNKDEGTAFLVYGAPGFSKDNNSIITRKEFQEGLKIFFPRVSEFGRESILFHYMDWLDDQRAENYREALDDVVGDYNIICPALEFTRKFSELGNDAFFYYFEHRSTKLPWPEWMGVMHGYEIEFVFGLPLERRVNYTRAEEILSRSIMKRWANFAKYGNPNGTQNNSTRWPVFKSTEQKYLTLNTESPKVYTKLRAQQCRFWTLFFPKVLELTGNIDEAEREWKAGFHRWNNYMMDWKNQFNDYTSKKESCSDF
Sequence of Acetylcholinesterase (Electrophorus electricus) (O42275 24-633 limits assumed): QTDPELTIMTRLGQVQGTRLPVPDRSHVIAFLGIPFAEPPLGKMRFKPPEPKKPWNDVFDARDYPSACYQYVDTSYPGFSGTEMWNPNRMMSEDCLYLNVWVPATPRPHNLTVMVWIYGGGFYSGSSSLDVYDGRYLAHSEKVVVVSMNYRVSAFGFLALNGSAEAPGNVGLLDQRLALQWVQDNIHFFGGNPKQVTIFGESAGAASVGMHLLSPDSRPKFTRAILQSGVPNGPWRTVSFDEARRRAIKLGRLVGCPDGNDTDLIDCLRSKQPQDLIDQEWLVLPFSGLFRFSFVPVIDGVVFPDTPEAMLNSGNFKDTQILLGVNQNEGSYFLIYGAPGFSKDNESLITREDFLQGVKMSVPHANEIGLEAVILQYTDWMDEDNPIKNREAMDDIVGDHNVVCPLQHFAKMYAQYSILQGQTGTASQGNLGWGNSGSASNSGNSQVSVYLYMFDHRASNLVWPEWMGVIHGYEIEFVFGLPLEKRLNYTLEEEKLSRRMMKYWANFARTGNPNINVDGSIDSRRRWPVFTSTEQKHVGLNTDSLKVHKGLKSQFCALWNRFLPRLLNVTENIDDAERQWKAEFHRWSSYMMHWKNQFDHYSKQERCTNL
Sequence of Cholinesterase (Equus caballus) (P81908 whole entry): as the sequence (P81908 whole entry) above

Row | Structure (SMILES) | IC50 (Acetylcholinesterase [1]) | IC50 (Acetylcholinesterase [2]) | IC50 (Cholinesterase) | Papp at 18 h [5] | also measured
1 | CN1C(=O)C(F)=C[C@@H]2[C@H]1C[C@H]2S(=O)(=O)N1CCOCC1 | 1.3 µM | 1.8 µM | – | – | –
2 | O=C1N[C@@H]2C[C@@H](S(=O)(=O)F)[C@@H]2c2c(Br)cccc21 | – | – | 3.3 µM | – | inhibition [3]: Active; inhibition [4]: Active
3 | CC1=C[C@@H]2[C@@H](C[C@@]2(Br)S(=O)(=O)F)N(C)C1=O | – | – | 10.7 µM | – | –
4 | C[C@]12CC[C@H]3[C@@H](CCC4=CC(=O)CC[C@@]43C)[C@@H]1CC[C@@H]2O [TESTOSTERONE] | – | – | – | 1.8 ×10⁻⁶ cm/s | –
5 | O=C1N[C@@H]2C[C@@H](S(=O)(=O)NCCC3CCN(Cc4ccccc4)CC3)[C@@H]2c2c(Cl)cccc21 | 0.094 µM | 0.099 µM | – | 13.1 ×10⁻⁶ cm/s | Ki (Acetylcholinesterase [6]): 0.128 µM; Activity (PC-12): 77.2%; Activity (Mus musculus [7]): Active; Activity (Mus musculus [8]): Active; Activity (Mus musculus [9]): Active
6 | CN1C(=O)C(F)=C[C@@H]2[C@H]1C[C@H]2S(=O)(=O)NCCc1ccc(F)cc1 | 4.56 µM | 3.37 µM | – | – | –
7 | O=C1N[C@@H]2C[C@@H](S(=O)(=O)NCCC3CCN(Cc4ccccc4)CC3)[C@@H]2c2c(Br)cccc21 | 0.24 µM | 0.28 µM | – | 10 ×10⁻⁶ cm/s | –
8 | CCCNS(=O)(=O)[C@@H]1C[C@@H]2[C@H]1C=C(F)C(=O)N2C | 6.78 µM | 5.59 µM | – | – | –
9 | CC(=O)[C@H]1CC[C@H]2[C@@H]3CCC4=CC(=O)CC[C@]4(C)[C@H]3CC[C@]12C [PROGESTERONE] | – | – | – | 16.4 ×10⁻⁶ cm/s | –
10 | CN1C(=O)C(F)=C[C@@H]2[C@H]1C[C@H]2S(=O)(=O)NCCC1CCN(Cc2ccccc2)CC1 | 0.38 µM | 0.34 µM | – | 12.3 ×10⁻⁶ cm/s | –
11 | CN1C(=O)C(F)=C[C@@H]2[C@H]1C[C@@]2(Br)S(=O)(=O)F | – | – | 14 µM | – | –
12 | CN1C(=O)C(F)=C[C@@H]2[C@H]1C[C@H]2S(=O)(=O)F | 18.8 µM | – | – | – | –
13 | CN1C(=O)C(F)=C[C@@H]2[C@H]1C[C@H]2S(=O)(=O)CC1CCN(Cc2ccccc2F)CC1 | 5.38 µM | 5.06 µM | – | – | –
14 | Cc1ccc2c(c1)[C@H]1[C@H](S(=O)(=O)F)C[C@H]1NC2=O | – | – | 5.03 µM | – | –
15 | CN1C(C(=O)Nc2ccccn2)=C(O)c2ccccc2S1(=O)=O [PIROXICAM] | – | – | – | 9.9 ×10⁻⁶ cm/s | –
16 | CN1C(=O)c2ccccc2[C@@H]2[C@H]1C[C@H]2S(=O)(=O)F | – | – | 12 µM | – | –
17 | O=C1N[C@@H]2C[C@@H](S(=O)(=O)F)[C@@H]2c2c(Cl)cccc21 | 6.82 µM | – | 7.98 µM | – | inhibition [3]: Active; inhibition [4]: Active
18 | CN1C(=O)C(F)=C[C@@H]2[C@H]1C[C@H]2S(=O)(=O)N1CCC(Cc2ccc(F)cc2)CC1 | 7.87 µM | 8.35 µM | – | – | –
19 | CN1C(=O)C(F)=C[C@@H]2[C@H]1C[C@H]2S(=O)(=O)NCCc1ccccc1F | 10.8 µM | 12.5 µM | – | – | –

Reference: ChEMBL document CHEMBL5620356, “Sulfur-fluoride exchange (SuFEx)-enabled lead discovery of AChE inhibitors by fragment linking strategies” (Eur J Med Chem, 2023)
